Experimental data taken from ChEMBL document CHEMBL5338734, “Anticancer Activity of Region B Capsaicin Analogs” (J Med Chem, 2023).

What was measured:
[1] = test system: HSC-3; test: Antiproliferative activity against human HSC-3 cells assessed as inhibition of cell growth incubated for 24 hrs by MTS assay; format: functional, cell-based; conditions: HSC-3, 24 h
[2] = test system: CAL-27; test: Antiproliferative activity against human CAL-27 cells assessed as inhibition of cell growth incubated for 24 hrs by MTS assay; format: functional, cell-based; conditions: CAL-27, 24 h
[3] = test system: SCC-4; test: Antiproliferative activity against human SCC-4 cells assessed as inhibition of cell growth incubated for 24 hrs by MTS assay; format: functional, cell-based; conditions: SCC-4, 24 h
[4] = test system: SCC-9; test: Antiproliferative activity against human SCC-9 cells assessed as inhibition of cell growth incubated for 24 hrs by MTS assay; format: functional, cell-based; conditions: SCC-9, 24 h
[5] = Cytotoxicity against human OKF6/TERT-2 cells assessed as inhibition of cell growth at >7.5 uM incubated for 24 hrs by MTS assay; format: toxicity, cell-based; conditions: read-out: Activity
[6] = test system: CAL-27; test: Antitumor activity against human CAL-27 cells xenografted in mouse assessed as mean tumor volume at 12 mg/kg, ip measured for 4 weeks by hematoxylin and eosin staining based analysis (reference value: 541 […]); format: functional
[7] = test system: CAL-27; test: Antitumor activity against human CAL-27 cells xenografted in mouse assessed as fold decrease in tumor size at 12 mg/kg, ip measured for 4 weeks by hematoxylin and eosin staining based analysis relative to control; format: functional
[8] = test system: CAL-27; test: Antiproliferative activity against human CAL-27 cells assessed as reduction of cell growth at 500 uM incubated for 24 hrs in presence of cisplatin by MTS assay; format: functional; set-up: scale not given: the % may be the effect or the level left
[9] = test system: CAL-27; test: Antiproliferative activity against human CAL-27 cells assessed as reduction of cell growth at 500 uM incubated for 24 hrs in presence of gefitinib by MTS assay; format: functional; set-up: scale not given: the % may be the effect or the level left
[10] = test system: CAL-27; test: Antiproliferative activity against human CAL-27 cells assessed as reduction of cell growth at 500 uM incubated for 24 hrs by MTS assay; format: functional; set-up: scale not given: the % may be the effect or the level left
[11] = test system: HeLa; test: Antiproliferative activity against human HeLa cells assessed as inhibition of cell growth incubated for 24 hrs by MTS assay; format: functional, cell-based
[12] = test system: NCI-H460; test: Antiproliferative activity against human NCI-H460 cells assessed as inhibition of cell growth incubated for 24 hrs by MTS assay; format: functional, cell-based; conditions: NCI-H460, 24 h
[13] = test system: MDA-MB-231; test: Antiproliferative activity against human MDA-MB-231 cells assessed as inhibition of cell growth incubated for 24 hrs by MTS assay; format: functional, cell-based; conditions: MDA-MB-231, 24 h
[14] = test system: PC-3; test: Antiproliferative activity against human PC-3 cells assessed as inhibition of cell growth incubated for 24 hrs by MTS assay; format: functional, cell-based; conditions: PC-3, 24 h
[15] = test system: MCF7; test: Antiproliferative activity against human MCF7 cells assessed as inhibition of cell growth incubated for 24 hrs by MTT assay; format: functional, cell-based; conditions: MCF7, 24 h
[16] = test system: SK-MEL-28; test: Antiproliferative activity against human SK-MEL-28 cells assessed as inhibition of cell growth incubated for 24 hrs by MTT assay; format: functional, cell-based; conditions: SK-MEL-28, 24 h
[17] = test system: SBcl2; test: Antiproliferative activity against human SBcl2 cells assessed as inhibition of cell growth incubated for 24 hrs by MTT assay; format: functional, cell-based; conditions: SBcl2, 24 h
[18] = Antiproliferative activity against human SK-MEL-85 cells assessed as inhibition of cell growth incubated for 24 hrs by MTT assay; format: functional, cell-based; conditions: SK-MEL-85, 24 h
[19] = test system: MCF7; test: Antiproliferative activity against human MCF7 cells assessed as inhibition of cell growth by MTT assay; format: functional, cell-based
[20] = test system: MDA-MB-231; test: Antiproliferative activity against human MDA-MB-231 cells assessed as inhibition of cell growth by MTT assay; format: functional, cell-based
[21] = test system: BT-474; test: Antiproliferative activity against human BT-474 cells assessed as inhibition of cell growth by MTT assay; format: functional, cell-based
[22] = test system: Jurkat; test: Induction of apoptosis in human Jurkat cells assessed as increase in apoptotic cells by propidium iodide staining based flow cytometry; format: functional, cell-based
[23] = test system: B16-F10; test: Antiproliferative activity against B16-F10 cells assessed as inhibition of cell growth measured after 24 hrs by MTT assay; format: functional, cell-based; conditions: Mus musculus, B16-F10, 24 h
[24] = test system: NCI-H1299; test: Antiproliferative activity against human NCI-H1299 cells assessed as inhibition of cell growth measured after 24 hrs by MTT assay; format: functional, cell-based; conditions: NCI-H1299, 24 h
[25] = test system: SK-MEL-28; test: Antiproliferative activity against human SK-MEL-28 cells assessed as inhibition of cell growth measured after 24 hrs by MTT assay; format: functional, cell-based; conditions: SK-MEL-28, 24 h
[26] = test system: DU-145; test: Antiproliferative activity against human DU-145 cells assessed as inhibition of cell growth; format: functional, cell-based
[27] = test system: CAL-27; test: Antiproliferative activity against human CAL-27 cells assessed as reduction of cell growth at 100 nM incubated for 24 hrs by MTS assay; format: functional; set-up: scale not given: the % may be the effect or the level left
[28] = test system: T-24; test: Antiproliferative activity against human T24 cells assessed as inhibition of cell growth measured after 24 hrs by MTT assay; format: functional, cell-based; conditions: T-24, 24 h
[29] = test system: 5637; test: Antiproliferative activity against human 5637 cells assessed as inhibition of cell growth measured after 24 hrs by MTT assay; format: functional, cell-based; conditions: Homo sapiens, 5637, 24 h

Q: With `Oc1cc2c(cc1O)CN(C(=S)NCCc1ccc(Cl)cc1)CC2` as the compound, how does the IC50 [1] read?
A: 2.5 µM

Q: What about the IC50 [2] of the same compound?
A: 2.5 µM

Q: What about the IC50 [3] of the same compound?
A: 2.5 µM

Q: What about the IC50 [4] of the same compound?
A: 2.5 µM

Q: What about the inhibition at 24 h [5] of the same compound?
A: 20%

Q: What about the Activity [6] of the same compound?
A: 211 mm3

Q: What about the “fold change (FC)” value [7] of the same compound?
A: 2.6

Q: With `Oc1cc2c(cc1O)C(c1ccccc1)N(C(=S)NCCc1ccc(Cl)cc1)CC2` (stereo not given) as the compound, how does the IC50 [1] read?
A: 1 µM

Q: And the IC50 [2]?
A: 1 µM

Q: What about the IC50 [3] of the same compound?
A: 1 µM

Q: And the IC50 [4]?
A: 1 µM

Q: And the inhibition at 24 h [5]?
A: 20%

Q: What about the Activity [8] of the same compound?
A: 95%

Q: What about the Activity [9] of the same compound?
A: ~80%

Q: And the Activity [10]?
A: 20%

Q: What about the IC50 [11] of the same compound?
A: ~5 µM

Q: And the IC50 [12]?
A: 7.5 µM

Q: What about the IC50 [13] of the same compound?
A: 2.5 µM

Q: And the IC50 [14]?
A: 1 µM

Q: And the Activity [6]?
A: 333 mm3

Q: And the “fold change (FC)” value [7]?
A: 4

Q: With `O=S(=O)(NCc1ccc2c(c1)OCO2)c1ccccc1` as the compound, how does the IC50 [15] read?
A: 32 µM

Q: And the IC50 [16]?
A: 19.1 µM

Q: What about the IC50 [17] of the same compound?
A: 17.5 µM

Q: And the IC50 [18]?
A: 15.7 µM

Q: For `CCOC(=O)C1=C(c2ccccc2)NC(C)=C(C(=O)SCCOC)C1CC` (stereo not given), which IC50 [19] is on record?
A: 3 µM

Q: And the IC50 [20]?
A: 40.8 µM

Q: What about the IC50 [21] of the same compound?
A: 10.6 µM

Q: Which IC50 [22] does the source give for `COc1cc(COC(=O)CCCCCC(C)C)ccc1O` here?
A: ~70 µM

Q: With `Oc1cc2c(cc1O)C(c1ccccc1)N(C(=S)NCc1ccccc1)CC2` (stereo not given) as the compound, how does the IC50 [1] read?
A: 20 µM

Q: What about the IC50 [2] of the same compound?
A: 20 µM

Q: What about the IC50 [3] of the same compound?
A: 20 µM

Q: And the IC50 [4]?
A: 20 µM

Q: What about the inhibition at 24 h [5] of the same compound?
A: 20%

Q: And the Activity [6]?
A: 134 mm3

Q: What about the “fold change (FC)” value [7] of the same compound?
A: 1.6

Q: Which IC50 [23] does the source give for `COc1ccc(CC(=O)OCc2ccc3c(c2)OCO3)cc1` here?
A: 117 µM

Q: What about the IC50 [24] of the same compound?
A: 187 µM

Q: Which IC50 [23] does the source give for `CCCCCCCCCCC(=O)OCc1ccc2c(c1)OCO2` here?
A: 87 µM

Q: And the IC50 [25]?
A: 85 µM

Q: For `COc1cc(CNC(=O)CCCC/C=C/C(C)C)ccc1O` [CAPSAICIN], which IC50 [22] is on record?
A: ~128 µM

Q: And the IC50 [23]?
A: 117 µM

Q: And the IC50 [24]?
A: ≥ 200 µM

Q: And the IC50 [15]?
A: ~53 µM

Q: With `Oc1cc2c(cc1O)CN(C(=S)NCCc1ccc(Cl)cc1)CCC2` [CAPSAZEPINE] as the compound, how does the IC50 [26] read?
A: 54 µM

Q: And the Activity [6]?
A: 269 mm3

Q: What about the “fold change (FC)” value [7] of the same compound?
A: 2

Q: With `COc1cc2ncnc(Nc3ccc(F)c(Cl)c3)c2cc1OCCCN1CCOCC1` [GEFITINIB] as the compound, how does the Activity [27] read?
A: 50%

Q: Which IC50 [28] does the source give for `C=C(C)[C@]12C[C@@H](C)[C@@]34O[C@](Cc5ccccc5)(O[C@@H]1[C@@H]3C=C(COC(=O)Cc1ccc(O)c(OC)c1)C[C@]1(O)C(=O)C(C)=C[C@@H]41)O2` [RESINIFERATOXIN] here?
A: ~21.4 µM

Q: And the IC50 [29]?
A: 19.9 µM
